One assay deals with PDE9 (Homo sapiens, UniProt O76083). Kind of assay: PDE9 inhibition assay.
PDE9, sequence (O76083 whole entry): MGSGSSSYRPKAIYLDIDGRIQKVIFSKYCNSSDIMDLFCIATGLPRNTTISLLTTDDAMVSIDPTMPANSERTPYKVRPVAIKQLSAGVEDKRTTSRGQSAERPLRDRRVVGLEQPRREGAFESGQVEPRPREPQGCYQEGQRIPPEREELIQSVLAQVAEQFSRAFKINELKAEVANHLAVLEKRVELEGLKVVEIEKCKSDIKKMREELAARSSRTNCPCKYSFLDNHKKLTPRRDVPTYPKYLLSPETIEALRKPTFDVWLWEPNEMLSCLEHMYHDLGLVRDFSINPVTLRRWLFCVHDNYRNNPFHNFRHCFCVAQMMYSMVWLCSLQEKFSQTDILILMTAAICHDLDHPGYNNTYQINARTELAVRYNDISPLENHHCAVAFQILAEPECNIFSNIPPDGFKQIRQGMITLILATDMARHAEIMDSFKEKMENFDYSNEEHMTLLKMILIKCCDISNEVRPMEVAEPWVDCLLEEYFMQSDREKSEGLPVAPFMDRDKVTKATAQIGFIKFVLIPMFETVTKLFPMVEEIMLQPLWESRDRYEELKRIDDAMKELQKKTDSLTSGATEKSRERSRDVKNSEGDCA
Conditions: not given
The format is biochemical. As to the method: Reactions are initiated by addition of the cyclic nucleotide substrate, and reactions are allowed to proceed for one hr at room temperature before being terminated through mixing with 15 uL 8 mg/mL yttrium silicate SPA beads (Amersham). […] IC50 values were calculated by non linear regression using XLfit (IDBS).
In turn, `O=c1[nH]c(CN2CC(Oc3cccnc3)C2)cn2c(-c3ccc(F)cc3)ncc12` [Compound 88, 3-(4-fluorophenyl)-6-[[3-(3-pyridyloxy)azetidin-1-yl]methyl]-7h-imidazo[1,5-a]pyrazin-8-one] had an IC50 of 3 nM.
Consider `N#Cc1ccc(OC2CN(Cc3cn4c(-c5ccc(F)cc5)ncc4c(=O)[nH]3)C2)cc1` [Compound 92, 4-[1-[[3-(4-fluorophenyl)-8-oxo-7h-imidazo[1,5-a]pyrazin-6-yl]methyl]azetidin-3-yl]oxybenzonitrile], for which the IC50 was determined as 76 nM.
With `N#Cc1cccc(OC2CN(Cc3cn4c(C5CCOCC5)ncc4c(=O)[nH]3)C2)c1` [Compound 94, 3-[1-[(8-oxo-3-tetrahydropyran-4-yl-7h-imidazo[1,5-a]pyrazin-6-yl)methyl]azetidin-3-yl]oxybenzonitrile], the half-inhibitory concentration (IC50) worked out at 12 nM.
`O=c1[nH]c(CN2CC(Oc3cccc(C(F)(F)F)c3)C2)cn2c(-c3ccc(F)cc3)ncc12` [Compound 95, 3-(4-fluorophenyl)-6-[[3-[3-(trifluoromethyl)phenoxy]azetidin-1-yl]methyl]-7h-imidazo[1,5-a]pyrazin-8-one] yielded an IC50 of 97 nM.
For `N#Cc1ccc(C2CN(Cc3cn4c(-c5ccc(F)cc5)ncc4c(=O)[nH]3)C2)cc1` [Compound 96, 4-[1-[[3-(4-fluorophenyl)-8-oxo-7h-imidazo[1,5-a]pyrazin-6-yl]methyl]azetidin-3-yl]benzonitrile], the half-inhibitory concentration (IC50) was found to be 2 nM.

Still in this assay, the particulars now being: SPA assay, 10 nM 3H-cAMP, 1 hour incubation; read-out: IC50.
For the molecule `CC1CN(Cc2ccc(C(F)(F)F)nc2)CC1c1cn2c(C3CCOCC3)ncc2c(=O)[nH]1` (stereo not drawn) [Compound 79, 6-[4-methyl-1-[[6-(trifluoromethyl)-3-pyridyl]methyl]pyrrolidin-3-yl]-3-tetrahydropyran-4-yl-7h-imidazo[1,5-a]pyrazin-8-one], the IC50 is 23 nM.
Same read-out and setting: with `N#Cc1ccc(OC2CN(Cc3cn4c(C5CCOCC5)ncc4c(=O)[nH]3)C2)cc1` [Compound 80, 4-[1-[(8-oxo-3-tetrahydropyran-4-yl-7h-imidazo[1,5-a]pyrazin-6-yl)methyl]azetidin-3-yl]oxybenzonitrile] the figure was 18 nM; with `CC1CN(Cc2ccccn2)CC1c1cn2c(C3CCOCC3)ncc2c(=O)[nH]1` (stereo not drawn) [Compound 81, 6-[4-methyl-1-(2-pyridylmethyl)pyrrolidin-3-yl]-3-tetrahydropyran-4-yl-7h-imidazo[1,5-a]pyrazin-8-one], 19 nM.
Take `O=c1[nH]c(CN2CC(Oc3ccncc3)C2)cn2c(C3CCOCC3)ncc12` [Compound 82, 6-[[3-(4-pyridyloxy)azetidin-1-yl]methyl]-3-tetrahydropyran-4-yl-7h-imidazo[1,5-a]pyrazin-8-one]: the IC50 stood at 14 nM.
With `O=c1[nH]c(CN2CCC(Oc3ncccn3)C2)cn2c(C3CCOCC3)ncc12` (stereo not drawn) [Compound 84, 6-[(3-pyrimidin-2-yloxypyrrolidin-1-yl)methyl]-3-tetrahydropyran-4-yl-7h-imidazo[1,5-a]pyrazin-8-one], the IC50 was 110 nM.
Consider `O=c1[nH]c(CN2CCC(Oc3ccccc3)C2)cn2c(-c3ccc(F)cc3)ncc12` (stereo not drawn) [Compound 85, 3-(4-fluorophenyl)-6-[(3-phenoxypyrrolidin-1-yl)methyl]-7h-imidazo[1,5-a]pyrazin-8-one], for which the IC50 is 140 nM.
In the case of `O=c1[nH]c(CN2CCC(Oc3ncccn3)C2)cn2c(-c3ccc(F)cc3)ncc12` (stereo not drawn) [Compound 86, 3-(4-fluorophenyl)-6-[(3-pyrimidin-2-yloxypyrrolidin-1-yl)methyl]-7h-imidazo[1,5-a]pyrazin-8-one], the IC50 was found to be 233 nM.
For the molecule `O=c1[nH]c(CN2CC(Oc3ccncc3)C2)cn2c(-c3ccc(F)cc3)ncc12` [Compound 87, 3-(4-fluorophenyl)-6-[[3-(4-pyridyloxy)azetidin-1-yl]methyl]-7h-imidazo[1,5-a]pyrazin-8-one], the 50% inhibitory concentration (IC50) amounted to 42 nM.
Consider `CC1CN(Cc2ccc(F)cc2)CC1c1cn2c(C3CCOCC3)ncc2c(=O)[nH]1` (stereo not drawn) [Compound 89, 6-[1-[(4-fluorophenyl)methyl]-4-methyl-pyrrolidin-3-yl]-3-tetrahydropyran-4-yl-7h-imidazo[1,5-a]pyrazin-8-one], for which the IC50 is 7 nM.
As to `CC1CN(Cc2ncccn2)CC1c1cn2c(C3CCOCC3)ncc2c(=O)[nH]1` (stereo not drawn) [Compound 90, 6-[4-methyl-1-(pyrimidin-2-ylmethyl)pyrrolidin-3-yl]-3-tetrahydropyran-4-yl-7h-imidazo[1,5-a]pyrazin-8-one], the IC50 turned out to be 19 nM.
`CC(c1cn2c(C3CCOCC3)ncc2c(=O)[nH]1)N1CC(c2ncccn2)C1` (stereo not drawn) [Compound 91, 6-[1-(3-pyrimidin-2-ylazetidin-1-yl)ethyl]-3-tetrahydropyran-4-yl-7h-imidazo[1,5-a]pyrazin-8-one]: the IC50 was determined as 46 nM.
Consider `N#Cc1cccc(OC2CN(Cc3cn4c(-c5ccc(F)cc5)ncc4c(=O)[nH]3)C2)c1` [Compound 93, 3-[1-[[3-(4-fluorophenyl)-8-oxo-7h-imidazo[1,5-a]pyrazin-6-yl]methyl]azetidin-3-yl]oxybenzonitrile], for which the IC50 stood at 18 nM.
For the molecule `CC1CN(Cc2ccc3nccnc3c2)CC1c1cn2c(C3CCOCC3)ncc2c(=O)[nH]1` (stereo not drawn) [Compound 97, 6-[4-methyl-1-(quinoxalin-6-ylmethyl)pyrrolidin-3-yl]-3-tetrahydropyran-4-yl-7h-imidazo[1,5-a]pyrazin-8-one], the IC50 worked out at 4 nM.
The same measure, in the same setting: as for `CC1CN(Cc2ccc(C#N)cc2)CC1c1cn2c(C3CCOCC3)ncc2c(=O)[nH]1` (stereo not drawn) [Compound 98, 4-[[3-methyl-4-(8-oxo-3-tetrahydropyran-4-yl-7h-imidazo[1,5-a]pyrazin-6-yl)pyrrolidin-1-yl]methyl]benzonitrile], the figure is 18 nM; as for `CC1CN(Cc2ccc(F)cc2)CC1c1cn2c(-c3ccc(F)cc3)ncc2c(=O)[nH]1` (stereo not drawn) [Compound 99, 3-(4-fluorophenyl)-6-[1-[(4-fluorophenyl)methyl]-4-methyl-pyrrolidin-3-yl]-7h-imidazo[1,5-a]pyrazin-8-one], 17 nM.
Turning to `CC1CN(Cc2ccc(F)cc2)CC1c1cn2c(-c3ccc(F)cc3)nc(Br)c2c(=O)[nH]1` (stereo not drawn) [Compound 100, 1-bromo-3-(4-fluorophenyl)-6-[1-[(4-fluorophenyl)methyl]-4-methyl-pyrrolidin-3-yl]-7h-imidazo[1,5-a]pyrazin-8-one], the concentration for half-maximal inhibition (IC50) was 4 nM.
Consider `COc1ccc(CN2CC(C)C(c3cn4c(C5CCOCC5)ncc4c(=O)[nH]3)C2)cn1` (stereo not drawn) [Compound 101, 6-[1-[(6-methoxy-3-pyridyl)methyl]-4-methyl-pyrrolidin-3-yl]-3-tetrahydropyran-4-yl-7h-imidazo[1,5-a]pyrazin-8-one], for which the 50% inhibitory concentration (IC50) is 18 nM.
On the same count and under the same terms, with `Cc1cnc(CN2CC(C)C(c3cn4c(C5CCOCC5)ncc4c(=O)[nH]3)C2)cn1` (stereo not drawn) [Compound 102, 6-[4-methyl-1-[(5-methylpyrazin-2-yl)methyl]pyrrolidin-3-yl]-3-tetrahydropyran-4-yl-7h-imidazo[1,5-a]pyrazin-8-one] the figure was 10 nM; with `N#Cc1ccc(C2CN(Cc3cn4c(C5CCOCC5)ncc4c(=O)[nH]3)C2)cc1` [Compound 106, 4-[1-[(8-oxo-3-tetrahydropyran-4-yl-7h-imidazo[1,5-a]pyrazin-6-yl)methyl]azetidin-3-yl]benzonitrile], 32 nM.
Regarding `N#Cc1cccc(C2CN(Cc3cn4c(C5CCOCC5)ncc4c(=O)[nH]3)C2)c1` [Compound 107, 3-[1-[(8-oxo-3-tetrahydropyran-4-yl-7h-imidazo[1,5-a]pyrazin-6-yl)methyl]azetidin-3-yl]benzonitrile], the IC50 is 35 nM.
Still for that read-out and setting: with `O=c1[nH]c(CN2CC(OCc3ccc(Cl)cc3)C2)cn2c(-c3ccc(F)cc3)ncc12` [Compound 108, 6-[[3-[(4-chlorophenyl)methoxy]azetidin-1-yl]methyl]-3-(4-fluorophenyl)-7h-imidazo[1,5-a]pyrazin-8-one] the figure was 34 nM; with `O=c1[nH]c(CN2CC(Oc3ccc(C(F)(F)F)cc3)C2)cn2c(-c3ccc(F)cc3)ncc12` [Compound 109, 3-(4-fluorophenyl)-6-[[3-[4-(trifluoromethyl)phenoxy]azetidin-1-yl]methyl]-7h-imidazo[1,5-a]pyrazin-8-one], 28 nM.
The same measure, in the same setting: as for `CC1CN(Cc2ccc(F)cc2)CC1c1cn2c(-c3ccc(Cl)cc3)ncc2c(=O)[nH]1` (stereo not drawn) [Compound 110, 3-(4-chlorophenyl)-6-[1-[(4-fluorophenyl)methyl]-4-methyl-pyrrolidin-3-yl]-7h-imidazo[1,5-a]pyrazin-8-one], the figure is 36 nM.
Take `CC1CN(Cc2ccc(F)cc2)CC1c1cn2c(-c3ccc(Cl)cc3)nc(Br)c2c(=O)[nH]1` (stereo not drawn) [Compound 111, 1-bromo-3-(4-chlorophenyl)-6-[1-[(4-fluorophenyl)methyl]-4-methyl-pyrrolidin-3-yl]-7h-imidazo[1,5-a]pyrazin-8-one]: the half-maximal inhibitory concentration (IC50) was determined as 74 nM.
For the molecule `COC1CN(C(C)C2(C)Cn3c(cnc3C3CCOCC3)C(=O)N2)C1` (stereo not drawn) [Compound 112, 6-[1-(3-methoxyazetidin-1-yl)ethyl]-6-methyl-3-tetrahydropyran-4-yl-7h-imidazo[1,5-a]pyrazin-8-one], the concentration for half-maximal inhibition (IC50) amounted to 22 nM.
The same measure, in the same setting: as for `Cc1ccc(COC2CN(Cc3cn4c(-c5ccc(F)cc5)ncc4c(=O)[nH]3)C2)cc1` [Compound 113, 3-(4-fluorophenyl)-6-[[3-(p-tolylmethoxy)azetidin-1-yl]methyl]-7h-imidazo[1,5-a]pyrazin-8-one], the figure is 9 nM.
For the molecule `CC1CN(Cc2ccccn2)CC1c1cn2c(-c3ccc(F)cc3)ncc2c(=O)[nH]1` (stereo not drawn) [Compound 114, 3-(4-fluorophenyl)-6-[4-methyl-1-(2-pyridylmethyl)pyrrolidin-3-yl]-7h-imidazo[1,5-a]pyrazin-8-one], the 50% inhibitory concentration (IC50) stood at 7 nM.
For the molecule `CC1CN(CC2CCCCC2)CC1c1cn2c(C3CCOCC3)ncc2c(=O)[nH]1` (stereo not drawn) [Compound 115, 6-[1-(cyclohexylmethyl)-4-methyl-pyrrolidin-3-yl]-3-tetrahydropyran-4-yl-7h-imidazo[1,5-a]pyrazin-8-one], the half-maximal inhibitory concentration (IC50) was 37 nM.

Usually IC50 stands for the point on the concentration scale where inhibition reaches its midpoint.

(Values after patent US9643970B2, “Substituted imidazo [1,5-a]pyrazines as PDE9 inhibitors” (H Lundbeck A/S, priority 2012, dated 2017).)
